# According to publication PMC11413854, “Reversible Control of Native GluN2B-Containing NMDA Receptors with Visible Light” (ACS Chemical Neuroscience, 2024):
# pIC50: −log10 of the molar value. Values joined by “and” are separate entries in the source; they are usually repeats but may differ in a detail not shown here. Identical values can stand only once. Like-named read-outs stand apart in the source and are kept apart here.
# Biological target: T1, GluN1/GluN2B receptors (UniProt P35439+Q01097)
# T1 construct: expressed in transfected cells; host or cells: HEK-293 cells (ECACC, Cat #96121229)
# Experiment: Whole-cell patch-clamp and photomodulation in HEK cells expressing GluN1/GluN2B
# Type: cell-based, rat GluN1, mouse GluN2B
# Details: for inhibition of GluN1/GluN2B currents in HEK cells: 2 µM; for inhibition at 2 µM: HEK293, 2 µM, read-out: inhibition of GluN1/GluN2B currents in HEK cells
# Description: Now that we have established the photodependence of OptoNAM-3 action, we tested whether this compound could be used to perform real-time modulation of NMDAR activity with light. To answer this question, we turned to mammalian cells, whose transparency allows homogeneous illumination of all membrane-expressed NMDARs. OptoNAM-3 was perfused together with agonists glutamate and glycine on HEK cells expressing GluN1/GluN2B receptors. […] OptoNAM-3 thus allows real-time and reversible inhibition of GluN1/GluN2B activity with light. By plotting the effect of different concentrations of OptoNAM-3 in the dark and during UV illumination, we observed a 20-fold UV-induced shift of OptoNAM-3 IC50 compared to the dark condition (Figure 4C). […] The stronger photodependence of OptoNAM-3 action on HEK cells might stem either from differences between cellular expression systems (Xenopus oocytes vs HEK cells) or from the different irradiation contexts (in solution for experiments in Xenopus oocytes and in a cellular context for HEK cells) (see below).
# HEK293 cells were used for heterologous expression of recombinant NMDA receptors studies using whole-cell patch-clamp. Wild-type NMDARs were expressed in HEK-293 cells (obtained from ECACC, Cat #96121229). HEK cells were cultured in DMEM + glutamax medium supplemented with 10% fetal bovine calf serum and 1% penicillin/streptomycin (5000 U/mL) and cultured under standard cell culture conditions (5% CO2, 37 °C). Transfections were performed using polyethylenimine (PEI) in a cDNA/PEI ratio of 1:3 (v/v). Cells were cotransfected with a DNA mixture containing plasmids encoding wild-type GluN1, wild-type GluN2A or GluN2B, and eGFP. The total amount of DNA was 1.0 μg per 500 μL of transfected medium containing […] diameter coverslip, and the mass ratio of GluN1:GluN2B:eGFP was 1:2:1 (1:1:1 for GluN2A). 150 μM of D-APV was added to the culture medium after transfection.
# Receptor functionality, OptoNAM-3 photodependence (dark then UV light) of activity, and association/dissociation kinetics (with and without UV light) were assessed in patch-clamp recordings of lifted whole cells 24–72 h post transfection (cells were not lifted for the 2 light cycles protocol, i.e., when “perfusion turned off” was written below current traces). Positively transfected cells were visualized by GFP fluorescence. The extracellular solution contained (in mM) 140 NaCl, 2.8 KCl, 1 CaCl2, 10 HEPES, 20 sucrose, and 0.01 DTPA (290–300 mOsm), pH adjusted to 7.3 using NaOH. […] Currents were sampled at 10 kHz and low-pass filtered at 2 kHz using an Axopatch 200B amplifier, a 1550B Digidata, and Clampex 10.6 (Molecular Devices). Agonists (100 μM glutamate and 100 μM glycine) were applied using a multibarrel solution exchanger (RSC 200; BioLogic). Recordings were performed at a holding potential of −60 mV and at room temperature.
# Computer-controlled light pulses during electrophysiological recordings were provided from high power sensitive LEDs (CoolLED pE-4000: 4 channels each controlling 4 wavelengths from 365 to 770 nm). The LED port was directly coupled via a microscope adaptor to the fluorescence port of an inverted IX73 Olympus microscope. The output beam of the LED entry was directed toward the sample thanks to a mirror (Chroma) and applied to the center of the recording dish through a 10× objective (irradiance ∼4 mW/mm^2 for 365, 385, and 435 nm; ∼6.5 mW/mm^2 for 460 nm; ∼2 mW/mm^2 for 490 and 525 nm; ∼1.5 mW/mm^2 for 500 nm, and ∼4.5 mW/mm^2 for 550 and 580 nm) (Olympus, 0.30 N.A.). Light power was measured in the center of the recording dish plane with an optical power meter (1916-C, Newport) equipped with a calibrated UV/D detector, and irradiance was obtained upon dividing light power by the illuminated field of the microscope 10× objective (19 mm^2).
# Data were collected and analyzed using pClamp 10.5 (Molecular Devices) and fitted using Sigmaplot 11.0 (SSPS). […]
# [1] = 550 nm illumination from UV state
# T1 sequence (Q01097 27-1482, other chains not shown): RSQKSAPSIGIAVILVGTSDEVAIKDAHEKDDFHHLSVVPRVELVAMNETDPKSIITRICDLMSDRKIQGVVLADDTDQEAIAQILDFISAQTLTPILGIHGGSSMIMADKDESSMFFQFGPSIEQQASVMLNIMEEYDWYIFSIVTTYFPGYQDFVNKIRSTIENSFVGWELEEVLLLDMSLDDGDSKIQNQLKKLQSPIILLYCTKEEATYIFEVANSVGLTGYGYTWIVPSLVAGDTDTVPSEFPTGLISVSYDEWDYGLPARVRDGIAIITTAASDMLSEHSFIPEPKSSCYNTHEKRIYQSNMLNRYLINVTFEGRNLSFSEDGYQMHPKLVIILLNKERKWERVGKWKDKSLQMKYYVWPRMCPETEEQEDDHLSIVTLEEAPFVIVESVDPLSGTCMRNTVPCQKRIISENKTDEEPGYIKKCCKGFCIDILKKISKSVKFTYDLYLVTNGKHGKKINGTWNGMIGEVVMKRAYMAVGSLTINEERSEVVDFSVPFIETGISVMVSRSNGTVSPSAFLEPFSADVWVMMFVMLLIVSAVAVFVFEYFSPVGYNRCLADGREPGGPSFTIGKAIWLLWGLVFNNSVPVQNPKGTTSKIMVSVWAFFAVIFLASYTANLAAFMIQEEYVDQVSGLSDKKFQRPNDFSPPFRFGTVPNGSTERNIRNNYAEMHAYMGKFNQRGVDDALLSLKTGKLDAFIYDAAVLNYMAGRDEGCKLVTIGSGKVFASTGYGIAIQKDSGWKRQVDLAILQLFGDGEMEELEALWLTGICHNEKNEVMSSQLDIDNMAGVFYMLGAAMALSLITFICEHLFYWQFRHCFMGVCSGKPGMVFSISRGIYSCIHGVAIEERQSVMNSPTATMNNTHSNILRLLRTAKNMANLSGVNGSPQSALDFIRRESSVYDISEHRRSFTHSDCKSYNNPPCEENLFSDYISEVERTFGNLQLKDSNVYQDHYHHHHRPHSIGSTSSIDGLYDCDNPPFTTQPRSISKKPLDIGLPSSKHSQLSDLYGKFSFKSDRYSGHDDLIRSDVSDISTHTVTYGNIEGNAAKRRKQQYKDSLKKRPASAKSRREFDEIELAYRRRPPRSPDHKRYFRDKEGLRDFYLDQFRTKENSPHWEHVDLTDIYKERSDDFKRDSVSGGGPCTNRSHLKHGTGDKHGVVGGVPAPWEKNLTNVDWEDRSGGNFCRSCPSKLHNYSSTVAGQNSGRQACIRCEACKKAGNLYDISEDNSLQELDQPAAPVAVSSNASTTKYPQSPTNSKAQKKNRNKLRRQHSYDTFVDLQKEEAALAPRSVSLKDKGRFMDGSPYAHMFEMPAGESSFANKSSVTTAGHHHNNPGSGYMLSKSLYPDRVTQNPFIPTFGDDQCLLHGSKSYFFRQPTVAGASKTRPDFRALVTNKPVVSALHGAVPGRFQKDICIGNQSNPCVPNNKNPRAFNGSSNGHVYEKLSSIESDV
smiles,measurement,setting,value
"c1ccc(/N=N/c2ccc(CCNc3ccncc3)cc2)cc1 [OptoNAM-3, (E)-N-(4-(Phenyldiazenyl)phenethyl)pyridin-4-amine]",inhibition of GluN1/GluN2B currents in HEK cells,[1],58.559%
same,inhibition of GluN1/GluN2B currents in HEK cells,dark,76.928%
same,inhibition of GluN1/GluN2B currents in HEK cells,under 365 nm illumination,23.428%
same,inhibition at 2 µM,[1],59%
same,inhibition at 2 µM,dark,77%
same,inhibition at 2 µM,under 365 nm illumination,23%
same,tau off of inhibition relief under UV illumination,"HEK cells, 365 nm",0.814 s
same,tau off of inhibition relief by washout in the dark,"HEK cells, dark",30.520 s
same,Relative current (IOpto/I0),"[OptoNAM-3] 0.050 µM, HEK cells, 365 nm illumination",0.936
same,Relative current (IOpto/I0),"[OptoNAM-3] 0.050 µM, HEK cells, dark PSS (trans)",0.679
same,Relative current (IOpto/I0),"[OptoNAM-3] 0.125 µM, HEK cells, 365 nm illumination",0.926
same,Relative current (IOpto/I0),"[OptoNAM-3] 0.125 µM, HEK cells, dark PSS (trans)",0.513
same,Relative current (IOpto/I0),"[OptoNAM-3] 0.300 µM, HEK cells, 365 nm illumination",0.848
same,Relative current (IOpto/I0),"[OptoNAM-3] 0.300 µM, HEK cells, dark PSS (trans)",0.435
same,Relative current (IOpto/I0),"[OptoNAM-3] 0.500 µM, HEK cells, dark PSS (trans)",0.261
same,Relative current (IOpto/I0),"[OptoNAM-3] 1.000 µM, HEK cells, 365 nm illumination",0.722
same,Relative current (IOpto/I0),"[OptoNAM-3] 1.000 µM, HEK cells, dark PSS (trans)",0.205
same,Relative current (IOpto/I0),"[OptoNAM-3] 1.500 µM, HEK cells, 365 nm illumination",0.713
same,Relative current (IOpto/I0),"[OptoNAM-3] 1.500 µM, HEK cells, dark PSS (trans)",0.181
same,Relative current (IOpto/I0),"[OptoNAM-3] 2.000 µM, HEK cells, 365 nm illumination",0.705
same,Relative current (IOpto/I0),"[OptoNAM-3] 2.000 µM, HEK cells, dark PSS (trans)",0.166
same,Relative current (IOpto/I0),"[OptoNAM-3] 2.500 µM, HEK cells, 365 nm illumination",0.442
same,Relative current (IOpto/I0),"[OptoNAM-3] 2.500 µM, HEK cells, dark PSS (trans)",0.034
same,pIC50,"cell illuminated at 365 nm, read-out: IC50 on GluN1/GluN2B in HEK cells illuminated at 365 nm",5.53 and 5.52
same,pIC50,"dark, read-out: IC50 on GluN1/GluN2B in HEK cells in the dark",6.82
